{"source": "patent US8614187B2", "about": "“Peptides, compositions and uses thereof” (The Queen's University of Belfast, priority 2007, dated 2013)", "key": {"[1]": {"system": "HMEC-1", "assay": "In vitro endothelial cell angiogenic tubule formation assay (Matrigel)", "format": "cell-based, human", "description": "FIG. 3 illustrates the effect of the QUB 698.8 peptide on the ability of HMEC-1 to form tubules on matrigel matrices.\n(§1) • 1. […] Selective arterial smooth muscle dilators often have pro-angiogenic properties so QUB 698.8 was subjected to a range of appropriate bioassays to determine spectra of activity. • 4. In the human microvessel endothelial cell wound scrape assay, cells are grown on a glass slide to confluence, a standard-sized wound is made with a pipette tip and time taken to repair tear is measured. QUB 698.8 promoted wound closure 42% faster than non-treated controls at an optimum effective concentration of 10 nanomolar (Table 1—panel B and FIGS. 2a and b). • 5. Using an in vitro endothelial cell angiogenic tubule formation assay (Matrigel) QUB 698.8 induced 75% more tubules than time-matched controls at an optimum concentration of 1 nanomolar (Table 1—panel B and FIG. 3). • 6. […] (Table 1—panel B and FIG. 4). This may be indicative of a rapid role in cell cycle synchronization."}, "[2]": {"system": "Human Microvascular Endothelial Cells (HMEC-1)", "assay": "Human microvessel endothelial cell wound scrape (migration) assay", "format": "cell-based", "description": "as §1"}, "[3]": {"system": "rat ileal smooth muscle ring preparation", "assay": "Rat ileum smooth muscle ring bioassay (constriction of spontaneously contracting ileum)", "format": "cell-based", "details": "for % Maximum Response (constriction): spontaneously contracting rat ileum, at optimum concentration", "description": "(B) Small Intestinal Smooth Muscle:\n(§2) For intestinal smooth muscle preparations, one cm thick rings of ileum were carefully placed onto the pins of a MacLab force transducer, one pin acting as a stationary fixed point while the second pin was free, permitting application of tension to the smooth muscle. The muscle rings were gradually exposed to 0.1 g increments in resting tension until the spontaneous contractions originated from a resting tension of 0.5 g. The contracting muscle preparations were allowed to stabilise for 25 min before the application of peptides. After perfusion of arterial preparations with 10 μM phenylephrine to obtain constriction plateaux, relative relaxation was recorded following applications of peptides in the range of 1×10^−5-1×10^−10 M. The intestinal smooth muscle ring preparations were exposed to peptide doses as above and relative changes in tension were recorded."}, "[4]": {"system": "HMEC-1", "assay": "Endothelial cell proliferation assay (MTT)", "format": "cell-based, human", "description": "FIG. 4 illustrates the effect of the QUB 698.8 peptide on the proliferation of HMEC-1 over 72 hours compared to a non-treatment control.\nas §1"}, "[5]": {"system": "rat tail arterial smooth muscle preparation", "assay": "Rat tail artery smooth muscle bioassay (relaxation of phenylephrine-preconstricted artery)", "format": "cell-based", "details": "for % Maximum Response (relaxation): rat tail artery, pre-constricted, at optimum concentration", "description": "(A) Arterial Smooth Muscle:\nMale albino Wistar rats (200-350 g) were euthanized by asphyxiation followed by cervical dislocation.\nThe tail artery was prepared as previously described (Hirst et al (1994) Br. J. Radiol. 67, 795-799). Incubation buffer was 95% O2/5% CO2 oxygenated Krebs' solution (NaCl 118 mM, KCl 4.7 mM, NaHCO3 25 mM, NaH2 PO4 1.15 mM, CaCl2 2.5 mM, MgCl2 1.1 mM, glucose 5.6 mM). Constriction or dilation of the arterial smooth muscle preparation was detected by an increase or decrease in pressure generated by water column displacement using pressure transducers connected to a MacLab System (AD Instruments Pty Ltd. Australia). […] Viability was determined using a range of bolus phenylephrine (5 μM-10 μM) exposures and the endothelial layer of the artery was removed by bubbling with oxygen for 10 s. Absence of the endothelial layer was confirmed by the lack of relaxation in response to a 30 min perfusion of acetylcholine (50 μM) after preconstriction with phenylephrine (10 μM).\nas §2"}, "[6]": {"details": "migration wound scrape, T = 7 dose response"}}, "data": [{"substance": "DLPKIN [QUB 698.8, Asp-Leu-Pro-Lys-Ile-Asn]", "values": [{"measurement": "Peptide effect", "setting": "[1]; stimulator of endothelial tubule formation", "result": "Potent"}, {"measurement": "EC50", "setting": "[1]; tubule formation", "result": 0.0526, "unit": "nM"}, {"measurement": "Optimum Concentration", "setting": "[1]; tubule formation", "result": "10^−9 M"}, {"measurement": "Optimum concentration", "setting": "[1]; tubule formation", "result": 1, "unit": "nM"}, {"measurement": "Time to 50% wound closure", "setting": "[2]; migration wound scrape, Other information", "result": "T = 3 hrs"}, {"measurement": "EC50", "setting": "[2]; [6]", "result": 0.339, "unit": "nM"}, {"measurement": "Optimum Concentration", "setting": "[2]; [6]", "result": "10^−8 M"}, {"measurement": "Peptide effect", "setting": "[2]; migration wound scrape, T = 7 dose response: promoter of wound closure", "result": "Potent"}, {"measurement": "Optimum effective concentration", "setting": "[2]; wound closure", "result": 10, "unit": "nM"}, {"measurement": "Optimum Concentration", "setting": "[2]; wound scrape total time to closure", "result": "10^−8 M"}, {"measurement": "Time to complete wound closure", "setting": "[2]; wound scrape total time to closure, 10^−8 M", "result": 16, "unit": "h"}, {"measurement": "Peptide effect", "setting": "[2]; wound scrape total time to closure: stimulator of initial endothelial migration", "result": "Potent"}, {"measurement": "Response of rat ileal smooth muscle ring preparation", "setting": "[3]", "result": "dose-dependent constriction"}, {"measurement": "EC50", "setting": "[3]; rat ileum constriction", "result": 1440, "unit": "nM"}, {"measurement": "Optimum Concentration", "setting": "[3]; rat ileum constriction", "result": "10^−5 M"}, {"measurement": "Potency relative to bradykinin and maximakinin", "setting": "[3]; rat ileum constriction", "result": "less potent than both bradykinin and maximakinin"}, {"measurement": "% Maximum Response (constriction)", "setting": "[3]", "result": 52, "unit": "% Constriction"}, {"measurement": "Endothelial cell number compared to non-treated controls after 48 h", "setting": "[4]; after 48 h", "result": "no significant differences"}, {"measurement": "Other information: proliferation after 24 hrs", "setting": "[4]; beyond 24 hrs", "result": "No further"}, {"measurement": "EC50", "setting": "[4]; proliferation", "result": 0.0659, "unit": "nM"}, {"measurement": "Optimum Concentration", "setting": "[4]; proliferation", "result": "10^−8 M"}, {"measurement": "Peptide effect", "setting": "[4]; stimulator of endothelial cell proliferation", "result": "Potent"}, {"measurement": "Response of rat tail arterial smooth muscle preparation", "setting": "[5]", "result": "dose-dependent relaxation"}, {"measurement": "Optimum concentration for maximal effect, arterial compared to ileal smooth muscle", "setting": "[5]; arterial vs ileal smooth muscle", "result": "two orders of magnitude lower"}, {"measurement": "EC50", "setting": "[5]; rat tail artery relaxation", "result": 7, "unit": "nM"}, {"measurement": "Optimum Concentration", "setting": "[5]; rat tail artery relaxation", "result": "10^−7 M"}, {"measurement": "Potency relative to bradykinin", "setting": "[5]; rat tail artery relaxation", "result": "almost equipotent with bradykinin"}, {"measurement": "Potency relative to maximakinin", "setting": "[5]; rat tail artery relaxation", "result": "more potent than maximakinin"}, {"measurement": "% Maximum Response (relaxation)", "setting": "[5]", "result": 25, "unit": "% relaxation"}]}, {"substance": "DLPKINRKGPRPPGFSPFR [Mx, Asp-Leu-Pro-Lys-Ile-Asn-Arg-Lys-Gly-Pro-Arg-Pro-Pro-Gly-Phe-Ser-Pro-Phe-Arg, reference compound]", "values": [{"measurement": "EC50", "setting": "[3]; rat ileum constriction", "result": 534, "unit": "nM"}, {"measurement": "Optimum Concentration", "setting": "[3]; rat ileum constriction", "result": "10^−6 M"}, {"measurement": "% Maximum Response (constriction)", "setting": "[3]", "result": 52, "unit": "% Constriction"}, {"measurement": "EC50", "setting": "[5]; rat tail artery relaxation", "result": 6.18, "unit": "nM"}, {"measurement": "Optimum Concentration", "setting": "[5]; rat tail artery relaxation", "result": "10^−7 M"}, {"measurement": "% Maximum Response (relaxation)", "setting": "[5]", "result": 30, "unit": "% relaxation"}]}]}
